Data published in patent US6946456B2, “Methods for treating cell proliferative disorders and viral infections” (Sloan-Kettering Institute for Cancer Research, priority 2000, dated 2005).
Entries after “also recorded” stand apart in the source; their conditions may differ.

What was measured:
[1] = system: cyclin A-associated kinase activity; experiment: Immunoprecipitation and in vitro kinase assay (histone H1), cyclin A; format: cell-based, human; conditions: MB-MDA 468, arrested cells compared to control cells
Protocol: (§1) Levels of mitotic cyclin expression and associated kinase activities in herbimycin arrested MB-MD468 cells were assessed using immunoblot analysis and in vitro kinase assays as described below. Cells cultured with herbimycin were enriched for mitotically arrested cells by using only the loosely adherent population in which the mitotic index was greater than 90%.
(§2) For immunoprecipitation, 100 μg of total protein was incubated with anticyclin A or anti-cyclin B1 (Santa Cruz) antibodies for 2 hours at 4° C. and then for 1 hour following the addition of protein A-Sephaliose. The immune complexes were washed 4× with lysis buffer and boiled in SDS-PAGE sample buffer for 5 min. Following SDS-PAGE, proteins were transferred onto Immobilon and analyzed by western blotting.
(§3) For in vitro kinase reactions, immune complexes were washed 4× with lysis buffer, 2× with kinase buffer (20 mM Tris pH 7.4, 7.5 mM MgCl2, 1 mM DTT) and incubated in 40 μl of kinase buffer containing 2 μg histone H1, 10 μCi [γ-^32P] ATP and 300 μM ATP for 10 min at 37° C. The reaction was stopped by the addition of SDS-PAGE sample buffer and boiled for 5 min. Proteins were resolved on SDS-PAGE, transferred onto Immobilon and exposed to autoradiography film or phosphoimager screen. Kinase activity was quantitated by FUJIX phosphoimager and MacBAS program software.

cyclin A expression = experiment: Immunoblot analysis of cyclin A expression; format: cell-based, human; conditions: MB-MDA 468, arrested cells compared to control cells
Protocol: as §1
(§4) Immunoblot analysis of lysates from cells treated with DMSO, nocodazole or herbimycin were analyzed by Western blot analysis using anti-cyclin A or anti-B1 antibodies. Treated cells were harvested, washed with PBS and lysed in NP40 lysis buffer (50 mM Tris pH7.4, 1% NP40,150 mM NaCl, 40 mM NaF. 1 mM Na3VO4, 1 mM phenylmethylsulfonlylfluoride, and 10 μg/ml. each of leupeptin, aprotinin and soybean trypsin inhibitor) for 30 min on ice. Lysates were centrifuged at 15,000×g for 10 min and protein concentration determined by bicinchoninic acid protein assay (Pierce). Equal amounts of total protein were resolved by SDS-PAGE and transferred onto Immobilon PVDF membranes (Millipore) by electroblotting. Blots were blocked overnight in 5% nonfat milk in TBS-T (0.1% Tween-20 TBS, 10 mM Tris pH 7.4, 150 mM NaCl) at 4° C. and subsequently probed with either anti-cyclin A or cyclin B1 antibodies (Santa Cruz Biotechnology). Following incubation with HRP-conjugated secondary antibodies, proteins were detected by chemiluminescence (Amersham).

[2] = system: HPV 16 E6/E7 transfected human foreskin keratinocytes; experiment: Cell cycle analysis in HPV 16 E6/E7 transfected human foreskin keratinocytes; format: cell-based; conditions: 24 hours
Protocol: (§5) Primary human foreskin keratinocytes transfected with HPV-1 6 E6 and E7 were provided by Drs. H. Stöppler and R. Schlegel (Georgetown Univ.) and grown as previously described. Primary human foreskin keratinocytes or HPV 16 E6/E7 transfected human foreskin keratinoytes were treated with HA or DMSO for 24 hours and ethidium bromide stained-nuclei analyzed by flow cytometry as described above.

[3] = system: Rb-wild type cells (MCF7 and Colo 205); experiment: Cell cycle analysis by flow cytometry of ethidium bromide-stained nuclei, Rb-wild type tumor cell lines; format: cell-based, human; conditions: for cell cycle effect in tumor cell lines: 12 tumor cell lines examined, FIG. 1A
Protocol: (§6) The human breast cancer cell lines MB-MDA 468, MCF7 and BT-549 and the colon carcinoma cell line, Colo 205, were obtained from ATCC. Breast cell lines were maintained in DME-F12 media and Colo 205 cells in RPMI; both media were supplemented with 5% fetal calf serum (BRL), 2 mM glutamine and 50 u/ml each of penicillin and streptomycin. All cells were incubated at 37° C. in 5% C02. Cells were treated for 24 hours with 250 ng/ml herbimycin A (Gibco) dissolved in DMSO or 435 nM of radicicol (Sigma). After treatment the […] and analyzed by flow cytometry. Nuclei were isolated for flow cytometry assays stained with ethidium bromide and analyzed using a Becton Dickinson fluorescence-activated cell sorter. Statistical data was obtained using Multicycle program software.

[4] = system: cyclin B1-associated kinase activity; experiment: Immunoprecipitation and in vitro kinase assay (histone H1), cyclin B1; format: cell-based, human; conditions: MB-MDA 468, loosely adherent mitotically arrested cells
Protocol: as §1, §2, §3

[5] = system: tumor cell lines with mutated Rb (MB-MDA 468, BT-549, DU145 and DU4475); experiment: Cell cycle analysis by flow cytometry of ethidium bromide-stained nuclei, tumor cell lines with mutated Rb; format: cell-based, human
Protocol: as §6

[6] = system: cyclin B1 protein expression; experiment: Immunoblot analysis of cyclin B1 expression; format: cell-based, human; conditions: MB-MDA 468, compared to control
Protocol: as §1, §4

MB-MDA 468 cells [7] = experiment: Mitotic index by bisbenzimide staining; format: cell-based, human
Protocol: For mitotic indices, cells were typsinized, washed with PBS and fixed with 3% paraformaidehyde in PBS for 20 min. Cells were then stained with 3 μg/ml bisbenzimide (Hoechst 33258; Sigma) for 15 min and examined under fluorescence microscopy. Mitosis was scored by the presence of condensed chromosomes.

[8] = system: Rb transfected MB-MDA 468 cells (468-7 and 468-19); experiment: Cell cycle analysis in Rb transfected MB-MDA 468 cells; format: cell-based, human
Protocol: (§7) To further confirm that the gene product of the Rb gene permits progression through mitosis in the presence of an HSP90 inhibitor, MB-MDA 468 cells were transfected with the plasmid pUHD1 0-3HGR containing full-length 4.7 kb human Rb cDNA. Rb transfectants were grown in DME-F12 media supplemented with 5% fetal calf serum (BRL), 2 mM glutamine and 50 μg/ml each of penicillin and streptomycin and 100 μg/ml hygromycin B (Boehringer Mannheim). To confirm the presence of the Rb gene product Western blot analysis was carried out using anti-Rb antibodies (Pharmingen) as described herein. Vector control, MB-MDA 468, and Rb transfected MB-MDA 468 cells were arrested with aphidicolin as described above. After release from aphidicolin arrest, transfected and non-transfected MM-MDA 468 cells were cultured in the presence of an ansamycin inhibitor as described in Example 1. Cell progression was monitored by flow cytometric analysis of ethidium bromide-stained nuclei as described above.

[9] = system: Rb-negative MB-MDA 468 cells; experiment: Synchrony experiment: release from aphidicolin block, MB-MDA 468; format: cell-based, human; conditions: released into drug
Protocol: (§8) Nuclei were isolated for flow cytometry assays stained with ethidium bromide and analyzed using a Becton Dickinson fluorescence-activated cell sorter. Statistical data was obtained using Multicycle program software.
(§9) For synchrony experiments, cells were treated with 1 μg/ml aphidicolin (Sigma) for 18 hours, washed and replated in media containing DMSO or HA.
as §7

MB-MDA 468 cells [10] = experiment: Immunofluorescent analysis (bisbenzimide, anti-α-tubulin, ACA/CREST); format: cell-based, human
Protocol: For immunofluorescent analysis, harvested cells were washed with PBS, fixed with methanol for 20 min at −20° C., washed again and blocked for 30 min with 2% BSA in PBS. Cells were then stained with anti-α-tubulin (Sigma) and anti-centromere protein antibodies (ACA/CREST) (gift of Dr. J. D. Rattner) in 2% BSA PBS for 1 hour. Following 3 washes with 0.5% BSA in PBS, cells were incubated with anti-human FITC conjugated, antimouse rhodamine conjugated antibodies (Molecular Probes) and 2 μg/ml bisbenzimide in 2% BSA in PBS for 45 min. Cells were then washed 4× with 0.5% BSA in PBS, resuspended in PBS and images captured by confocal microscopy or with a CCD camera. Images were then processed using Slidebook 3.0 and Adobe Photoshop program software.

[11] = system: primary human foreskin keratinocytes (HFK); experiment: Cell cycle analysis in primary human foreskin keratinocytes; format: cell-based; conditions: 24 hours
Protocol: as §5

[12] = system: Rb-wild type Colo 205 cells; experiment: Synchrony experiment: release from aphidicolin block, Colo 205; format: cell-based, human; conditions: released into drug
Protocol: as §8, §9

COC(=O)Nc1nc2ccc(C(=O)c3cccs3)cc2[nH]1 [nocodazole]
cyclin A-associated kinase activity [1]: slightly lower
cyclin A expression (cyclin A expression): slightly lower

CO[C@H]1[C@@H](OC)C[C@H](C)[C@@H](OC)C2=CC(=O)C=C(NC(=O)/C(C)=C/C=C\[C@H](OC)[C@@H](OC(N)=O)/C(C)=C/[C@@H]1C)C2=O [HA, herbimycin A]
cell cycle effect in E6/E7 transfectants [2]: arrested with 4n DNA content; also recorded: mitotic arrest and not G1 arrest
cell cycle effect in tumor cell lines [3]: growth arrest in G1
cyclin B1-associated kinase activity, elevation compared to control [4]: 5 fold
cell cycle effect in tumor cell lines with mutated Rb ([5]; MB-MDA 468, BT-549, DU145 and DU4475, 250 ng/ml, 24 hours, FIG. 1B): accumulation of cells with 4n DNA content
cell cycle effect in control transfectants ([5]; control transfectants (MB-MDA 468 cells)): accumulated with 4n DNA content
cyclin B1 protein expression [6]: increased
mitotic index of the loosely adherent population (MB-MDA 468 cells [7]; MB-MDA 468, enriched for mitotically arrested cells): greater than 90%
mitotic index (cells in mitosis) (MB-MDA 468 cells [7]; MB-MDA 468 cells, treated population, control 5-10%): 60-70%
cell cycle effect in Rb-transfectants ([8]; clones 468-7 and 468-19, asynchronous): increase in G1 and had no effect on G2/M; also recorded: no effect on G2/M in the Rb-transfectants and instead caused an increase in G1
cell cycle progression of Rb transfectants after release from aphidicolin block ([8]; clones 468-7 and 468-19, released into drug): cycled through mitosis and entered G1; also recorded: abrogates HA-induced mitotic arrest
time to arrest in the next mitosis after release from aphidicolin [9]: ≤ 12 h
cyclin A-associated kinase activity [1]: slightly lower
chromosomes localized to the poles scored as double dots for ACA staining (MB-MDA 468 cells [10]; 77 chromosomes localized to the poles): 87%
spindle formation (α-tubulin staining) (MB-MDA 468 cells [10]; arrested Rb-negative cells): arrested cells contained bipolar spindles
chromosomal distribution (bisbenzimide and ACA/CREST staining) (MB-MDA 468 cells [10]; arrested Rb-negative cells, in most cells): chromosomes localized both to the poles and within the spindle
cell cycle effect in primary HFK cells [11]: accumulate in G1
cyclin A expression (cyclin A expression): slightly lower
cell cycle progression after release from aphidicolin block [12]: complete mitosis; also recorded: progressed through G2 and mitosis and were arrested in the next G1

C[C@@H]1C[C@H]2O[C@@H]2/C=C\C=C\C(=O)Cc2c(Cl)c(O)cc(O)c2C(=O)O1 [Radicicol]
cell cycle effect in Rb-positive cell lines ([3]; Colo205 and MCF7, 435 nM, 24 hours): induced G1 arrest
cell cycle effect in Rb-negative MDA-468 cells ([5]; MDA-468, 435 nM, 24 hours): accumulation of cells with 4n DNA content
chromosomal distribution in arrested MDA 468 cells (MB-MDA 468 cells [10]; MDA 468 cells, radicicol-arrested): chromosomes localized to the poles as well as strewn along the spindle

C=CCNC1=C2C[C@@H](C)C[C@H](OC)[C@H](O)[C@@H](C)/C=C(\C)[C@H](OC(N)=O)[C@@H](OC)/C=C\C=C(/C)C(=O)NC(=CC1=O)C2=O [17-AAG, 17-allylamino-(17)-demethoxygeldanamycin]
cell cycle effect in tumor cell lines [3]: growth arrest in G1
cell cycle profiles and mitotic phenotype compared with HA ([5]; Rb-dependent): same Rb-dependent cell cycle profiles and mitotic phenotype as observed with HA
